Laboratory results from patent publication US9884863B2, “STAT3 inhibitor” (Board of Regents, The University of Texas System, priority 2013, dated 2018).

Legend:
MCF-7 = test: MTS cell proliferation assay, MCF-7; format: cell-based, human; conditions: Homo sapiens, MCF7, 72 h, read-out: IC50 MCF-7 (Table 4)
In short: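 MCF-7 human breast cancer cells were exposed to test compounds at a range of concentrations, then proliferation was measured with the MTS reagent from Promega's CellTiter 96 AQueous Non-Radioactive Cell Proliferation Assay kit. After 1 hr at 37° C., OD at 550 nm was read on a 96-well iMark Microplate Absorbance Reader, with quadruplicate wells per concentration.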

MDA-MB-231 = test: MTS cell proliferation assay, MDA-MB-231; format: cell-based, human; conditions: Homo sapiens, MDA-MB-231, 72 h, read-out: IC50 MDA-MB-231 (Table 4)
In short: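 Cells are exposed to DMSO or STAT3 inhibitors at 0.01-100 μM for 72 h, or at 1, 5 and 10 μM. Proliferation is read by MTS absorbance at 550 or 560 nm after 1 h at 37 °C. Each concentration is run in quadruplicate wells.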

Panc-1 = test: MTS cell proliferation assay, Panc-1; format: cell-based, human; conditions: Homo sapiens, PANC-1, 72 h, read-out: IC50 Panc-1 (Table 4)
In short: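 Cells seeded at 2×10^3 cells/well and exposed 72 h to DMSO or 0.01–100 μM STAT3 inhibitor, quadruplicate wells per concentration. Proliferation read by MTS reduction, OD 550 nm after 1 h at 37 °C.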

[1] = tested on: MDA-MB-231 xenograft tumors; test: MDA-MB-231 xenograft tumor growth in nude mice; format: in vivo; conditions: oral gavage daily for 14 days
[2] = tested on: STAT3 and pSTAT3 in MDA-MB-231 xenograft tumors; test: IHC and Western blot of xenograft tumors; format: in vivo, mice; conditions: oral gavage 14 days
Excerpt: Immunohistochemistry (IHC): Paraffin blocks of the collected tissue were sectioned into 4 μm thickness and stained with H&E as a reference. All slides were subjected to phospho-STAT3 (Y705) IHC with ABC staining method. Rabbit or mouse IgG ABC kit was purchased from Vector Laboratories (Burlingame, Calif., USA) and ABC staining reagents were purchased from Sigma Aldrich (Louis, Mo., USA). PBS was used instead of primary antibody as a negative control.

Question: With O=C(Nc1ccc([N+](=O)[O-])cc1Cl)c1cc(Cl)ccc1O [niclosamide, reference compound] as the compound, how does the IC50 (MCF-7) read?
Answer: Its IC50 is 1060 nM.

Question: And the IC50 (MDA-MB-231)?
Answer: Its IC50 is 790 nM.

Question: And the IC50 (Panc-1)?
Answer: The IC50 was 1730 nM.

Question: And the “reduction in tumor growth, 75 mg/kg” value [1]?
Answer: The value was 55%.

Question: What about the “STAT3 and pSTAT3 (Y705 and S727) in tumor lysates, Western blot” value [2] of the same compound?
Answer: Its value is “decreased”.
